Tests used:
[1] = tested on: immortalized (spontaneously transformed) rat astrocyte lines; settings: in vitro; cited from earlier work
GBMs (rat line C6) = settings: in vitro; cited from earlier work
[2] = tested on: human glioblastoma lines (GBM, line U-87 MG); experiment: Anti-GBM activity in vitro on cultures of human U87-MG cells, cell aggregates (CA); type: cell-based
Method: (§1) Plastic flat-bottomed 96-well culture plates (NUNC, USA) treated for cell culture (Sigma-Aldrich, ref. 114754) are used; 1500 cells are seeded per well in 200 μl of culture medium. At the time of treatment, 100 μl of pure culture medium, 100 μl of culture medium containing ethanol, or liposomes, or 100 μl of culture medium containing the active ingredients are added per well; the final volume of the culture medium, after treatment, is therefore 300 μl for all the wells.
The human glioblastoma lines (GBM, line U-87 MG) and their culture medium (Eagle's Minimum Essential Medium or EMEM) were obtained from ATCC (USA, ref. ATCC-HTB-14). Culture of the cells is started and maintained according to the recommendations of the ATCC. These lines are commonly used “in vitro” and “in vivo” for testing anti-GBM potential. The doubling time of these lines is 16 h.
The active ingredients are either dissolved in absolute ethanol (AnalaR, NORMAPUR, VWR, France) or in the form of a liposomal solution, such as 10 μl of the stock solutions diluted in 990 μl and then added to the culture wells ([…] medium per well BI-GBM: 300 μl).
(§2) When the active ingredients are in ethanolic solution, the culture medium contains […] ethanol (v/v).
Briefly, the compounds to be tested, namely the compounds according to the invention (active ingredients) or 7β-OHCH—C3-ester (a derivative of 7beta-hydroxysterol esterified in position 3 with an oleate group, the synthesis of which is described by Rakotoarivelo et al. (18) and used as control), soya phosphatidylcholine (Sigma) as well as cholesteryl-3-sulphate (Sigma) are taken from their stock solutions prepared from dichloroethane in the case of the active ingredients and the 7β-OHCH—C3-ester, a chloroform:methanol mixture (9:1, v/v) in the case of phosphatidylcholine and chloroform in the case of cholesteryl-3-sulphate. The molar ratios are 1 M/0.1 M/0.25 M for phosphatidylcholine, cholesteryl-3-sulphate and the 7β-OHCH—C3-ester and the active ingredients respectively.
After evaporation, a solution of PBS saline, without Ca^2+ and Mg^2+, pH7.2 (BioRad) is added to the dry compound. The volume of buffer and the mass of the products are adjusted so that 20 or 10 μl of liposomes added to 90 μl of culture medium gives the desired final concentrations. The liposomes are formed by the extrusion technique with Liposofast (Sodexim, SA Muizon, France). The solution is passed through polycarbonate filtration membranes (100 nm) 41 times. The liposomes are sterilized by filtration on […] Millipore membranes.
(§3) For example, in the case of the cultures in 96-well plates and as a function of the magnification of the microscope used (objectives×10 or ×20, oculars×10), a photograph taken represents a field of view with a diameter equal to 1/5 of the diameter of a well. Therefore the total number of cells in a well is equal to […] the number of cells per photograph. This technique was compared with a standard technique (trypsinization of the cell layer, centrifugation of the cells, suspension of the cells in physiological saline solution and counting with a THOMA cell) in the case of the C6 cells. The results obtained are identical for both methods.
(§4) The culture medium is withdrawn from each well and 50 μl of Laemmli buffer (0.1 ml of Tris, 0.8 ml of glycerol, 1.6 mL of 10% SDS, 8 ml q.s.f ultrapure water) is added per well.
This test makes it possible to detect the cellular respiration, especially the mitochondrial respiration. The stock solution of tetrazolium salt MTT (3-(4,5-dimethylthiazol-2-yl)-2,5-diphenyl tetrazolium bromide, Sigma-Aldrich, USA, ref. M5655) is prepared with 10 mg of MIT/ml of PBS buffer (phosphate-buffered saline, SIGMA, ref. D 1408). This solution is added directly to the culture medium in each well; the final concentration of MTT is 25 μg/ml. The plate is then incubated at 37° C. for at least 1 h. […]

[3] = tested on: CD133+ stem cells (U87-MG cultures); experiment: Immunolabelling of the CD133+ stem cells with the A/B peroxidase system; type: cell-based, human; settings: for CD133+ cells, percentage relative to the controls: 80 μM in liposomal form; for destruction of the CD133+ stem cells: liposomal form
Method: The anti-CD133 (poly, Abnova), anti-GFAP (poly, Sigma), anti-NFL (mono, Santa Cruz) and anti-fibroblast (ERTR7, Santa Cruz) primary antibodies are diluted to 1/100 in the case of the first three antibodies and to 1/50 in the case of the last.
The secondary antibodies corresponding to recognition of the primary antibodies are anti-rabbit antibodies coupled to peroxidase (goat, Sigma), anti-mouse coupled to Dylight 488 (sheep, Sigma), anti-mouse coupled to Dylight 488 (sheep, Sigma) and anti-rat coupled to FITC (rabbit, Sigma). The dilutions are 1/4000, 1/1000, 1/4000 and 1/400 respectively.
The cells are permeabilized for 5 min with 0.1% Triton X-100 (Sigma) in PBS (Fisher Scientific). The nonspecific sites are blocked with 2% BSA (Sigma) in PBS. Incubations are carried out for 1 h at ambient temperature, 48 h at 4° C., 24 h at 4° C. and 1 h at ambient temperature for the anti-CD133, anti-GFAP, anti-NFL and anti-Fibroblast antibodies respectively. Incubation with the secondary antibodies is carried out for 1 h at ambient temperature. The CD133 positive cells are detected by the DAB/H2O2 system (Sigma), and observed with an optical microscope.
The immunolabelling is carried out as described above (section II, A).

Solubility in ethanol = type: physicochemical; settings: ethanolic form
[4] = tested on: Neuroblastoma (line SH-SY5Y, ATCC-CRL-2266); experiment: Activity in vitro on human neuroblastomas; type: cell-based; settings: 22 μM once, concentrated liposomal form, 28 days of treatment
Method: They were obtained from the ATCC collection (Ref. ATCC-CRL-2266). The culture conditions are based on the recommendations in the ATCC information leaflet. • Chronic Myelomonocytic Leukaemia (CMML)
The neuroblastomas were treated with empty liposomes (controls) or with liposomes containing molecule 1.b or 2.b, 24 h after starting the culture. The cells are treated once with 22 μM of molecule 1.b or 22 μM of molecule 2.b. The liposomal form is concentrated.
For the control cells, the upper left hand photograph marked with the letter A was taken after 7 days of treatment; the lower left hand photograph marked with the letter B was taken after 28 days of treatment.
For the cells treated with the concentrated liposomal molecule 1.b, the photograph marked with the letter C (in the middle, at the top) was taken after 7 days of treatment and the photograph marked with the letter D (in the middle, at the bottom) after 28 days of treatment. For the cells treated with the concentrated liposomal molecule 2.b, the upper right hand photograph marked with the letter E was taken after 7 days of treatment.

C6 cells = experiment: Anti-GBM activity in vitro on cultures of C6 cells (cell counting, protein assay, MTT test); type: cell-based, rat
Method: as §1
The cultures are incubated in a Sanyo incubator (Japan, model MCO-19AlC-UV) at 37° C. and in an atmosphere with 5% CO2 and saturated in humidity. The cells are observed with an inverted microscope (Nikon Eclipse TS100, Japan) and the photographs are taken with a camera (DIGITAL camera with c-mount; LABOVER, France). The culture hood is a microbiological safety hood MSC (thermo SCIENTIFIC, model HERA SAFE KS12, France).
The type C6 cell line was obtained by Benda et al. (16) from rat brain tumours, induced by N-methylnitrosourea. This cell type is used as “in vitro” and “in vivo” model for evaluating anti-GBM potential. The lines originate from the former Strasbourg Neurochemistry Centre (U44 INSERM and UPR 416 CNRS).
The culture medium is made up of 70% Minimum Essential Medium (MEM; (Fischer Scientifique, ref. 61100) and 30% Hanks solution (SIGMA, ref. H 9269). The following are added to the culture medium: foetal calf serum (FCS; Fischer Scientifique, ref. 10108165) at a final concentration of 5% (v/v), an antibiotic solution of ciprofloxacin hydrochloride 5 μg/mL (EUROMEDEX, ref. UC5074) and a solution of Fungizone 2.5 μg/mL (INVITROGEN, ref. 15290-026). The doubling time of this cell type is 17 h. • GBM lines of human origin
The active ingredients are either dissolved in absolute ethanol (AnalaR, NORMAPUR, VWR, France) or in the form of a liposomal solution, such as 10 μl of the stock solutions diluted in 990 μl and then added to the culture wells (200 μl of culture medium) giving concentrations of 30.0, 15.0, 7.5 and 3.3 μM (final volume of culture medium per well BI-GBM: 300 μl).
as §2
A method of cell counting on photographs was used.
as §3, §4
In control wells, 10 μl of a solution of bovine serum albumin range (crystallized BSA, Sigma) is added; the range is from 0 to 20 μg per well. The wells are then supplemented with 40 μl of Laemmli buffer. Finally, 200 μl of solution of BCA reagent is added (Pierce, USA; BCA Protein Assay Kit; ThemoScientific, France).
The culture plates are incubated for 30 min at 37° C. The optical density for each well is read and quantified by a plate reader (BioRad, USA, iMark Microplate reader 12222) at 570 nm.
This test makes it possible to detect the cellular respiration, especially the mitochondrial respiration. The stock solution of tetrazolium salt MTT (3-(4,5-dimethylthiazol-2-yl)-2,5-diphenyl tetrazolium bromide, Sigma-Aldrich, USA, ref. M5655) is prepared with 10 mg of MIT/ml of PBS buffer (phosphate-buffered saline, SIGMA, ref. D 1408). […]

CC(C)CCC[C@@H](C)[C@H]1CC[C@H]2[C@@H]3[C@@H](O)C=C4C[C@@H](O)CC[C@]4(C)[C@H]3CC[C@]12C [7β-OHCH, 7β-Hydroxycholesterol]
cytotoxicity [1]: remarkable cytotoxicity
cytotoxicity (GBMs (rat line C6)): remarkable cytotoxicity
death of GBMs ([2]; control experiments at the very low levels formed from molecule 2.b): do not induce any death of GBMs

CCCCCCCC/C=C\CCCCCCCC(=O)O[C@H]1CC[C@@]2(C)C(=C[C@H](O)[C@H]3[C@@H]4CC[C@H]([C@H](C)CCCC(C)C)[C@@]4(C)CC[C@@H]32)C1 [7β-OHCH—C3-ester]
CD133+ cells, percentage relative to the controls ([3]; 4 days of treatment): 100%
CD133+ cells, percentage relative to the controls ([3]; 22 days of treatment): 50%
destruction of the CD133+ stem cells [3]: This is not the case
destruction of the CD133+ stem cells ([3]; listed as 7beta-OHCH-C3-ester): does not completely destroy the CD 133+
action on the GBMs (CA) ([2]; ethanolic form): does not act
anti-tumour activity ([2]; ethanolic form): no anti-tumour activity is observed
efficacy on increasing the dose ([2]; liposomal form): not better, or even decreases
reduction of the level of proteins relative to the untreated control cells ([2]; liposomal form): 85%
MTT/cell ratio ([2]; liposomal form, 80 μM): does not vary
action on the GBMs (CA) ([2]; liposomal form, 80 μM): only acts in liposomal form
cell multiplication after replacing the medium with fresh drug-free medium ([2]; liposomal form, medium replaced on the 13th day of treatment): cell multiplication is observed
increase in the MTT test after removal of the drug ([2]; medium replaced on the 13th day, two days later): 40%
solubility in ethanol (concentration above which no longer soluble) (Solubility in ethanol): ≤ 30 µM

CC(=O)OC1C=C2CC(OC(=O)C(C)NC(=O)CNC(=O)OCc3ccccc3)CCC2(C)C2CCC3(C)C(C(C)CCCC(C)C)CCC3C12 (centres unmarked) [Molecule 1.b, 7-acetoxy-10,13-dimethyl-17-(6-methylheptan-2-yl)-2,3,4,7,8,9,10,11,12,13,14,15,16,17-tetradecahydro-1H-cyclopenta[a]phenanthren-3-yl 2-(2-(((benzyloxy)carbonyl)amino)acetamido)propanoate]
toxicity to neuroblastoma cells compared to the control cells [4]: toxic to almost all the cells

CC(C)CCCC(C)C1CCC2C3C(OC(=O)OC(C)(C)C)C=C4CC(OC(=O)C(C)NC(=O)CNC(=O)OCc5ccccc5)CCC4(C)C3CCC12C (centres unmarked) [Molecule 1.a, 7-((tert-butoxycarbonyl)oxy)-10,13-dimethyl-17-(6-methylheptan-2-yl)-2,3,4,7,8,9,10,11,12,13,14,15,16,17-tetradecahydro-1H-cyclopenta[a]phenanthren-3-yl 2-(2-(((benzyloxy)carbonyl)amino)acetamido)propanoate]
increase of the MTT/cell ratio relative to the control cultures (C6 cells; 15 μM, 19 days of treatment): 20%
reduction of the number of cells, the level of proteins and the MTT assay (C6 cells; 15 μM, ethanolic form, 14 days of treatment): 30%
reduction of the number of cells, the level of proteins and the MTT assay (C6 cells; 15 μM, ethanolic form, 19 days of treatment): ≥ 97%
dose-dependence (C6 cells; 7.5 and 3.3 μM, 19 days of treatment): dose-dependence is also observed
Live residual cells (C6 cells; 15 μm, ethanol 3%): 3%
cytotoxicity (C6 cells; ethanolic form, after 19 days of treatment): cytotoxic
